Measurements taken from patent publication US10023562B2, “Heteroaryl substituted pyridyl compounds useful as kinase modulators” (BRISTOL-MYERS SQUIBB COMPANY, priority 2012, dated 2018).

System: TLR2 induced IL-6 in peripheral blood mononuclear cells (PBMCs)
Assay: PBMC TLR2 Induced IL-6 Assay
Format: cell-based
Conditions: Homo sapiens, PBMC, 5 h, 10 μg/ml lipoteichoic acid for 5 hours, IL-6 by ELISA, values without asterisk, read-out: Cell IC50
Experimental: PBMC TLR2 Induced IL-6 Assay Peripheral blood mononuclear cells (PBMCs) were isolated from human blood containing the anti-coagulant EDTA (2.5 mM) by centrifugation over a FICOLL® gradient. […] At the end of the culture, plates were centrifuged at 1800 rpm for 10 minutes to pellet the cells. Supernatants were harvested and analyzed for IL-6 levels by ELISA (BD Biosciences, San Jose, Calif.).

CC(C)Nc1cc(Nc2ccc(C#N)c(N3CCC(O)C3)n2)ncc1C(=O)NC[C@@H](F)C(C)(C)O (stereo in doubt) [Example 27, 6-((5-cyano-6-((3S)-3-hydroxy-1-pyrrolidinyl)-2-pyridinyl)amino)-N-((2R)-2-fluoro-3-hydroxy-3-methylbutyl)-4-(isopropylamino)nicotinamide]
IC50: 133 nM

CNC(=O)c1cnc(Nc2ccc(C#N)cn2)cc1N[C@@H](c1ccccc1)[C@H](O)CO [Example 1, 6-((5-cyano-2-pyridinyl)amino)-4-(((1S,2S)-2,3-dihydroxy-1-phenylpropyl)amino)-N-methylnicotinamide]
IC50: 550 nM

CC(C)Nc1cc(Nc2ccc(C#N)cn2)ncc1C(=O)NC[C@@H](F)C(C)(C)O [Example 2, 6-((5-cyano-2-pyridinyl)amino)-N-((2R)-2-fluoro-3-hydroxy-3-methylbutyl)-4-(isopropylamino)nicotinamide]
IC50: 453 nM

CC(C)(O)[C@H](F)CNC(=O)c1cnc(Nc2ccc(C#N)cn2)cc1NCC(F)(F)F [Example 3, 6-((5-cyano-2-pyridinyl)amino)-N-((2R)-2-fluoro-3-hydroxy-3-methylbutyl)-4-((2,2,2-trifluoroethyl)amino)nicotinamide]
IC50: 789 nM

CCNc1cc(Nc2ccc(C#N)cn2)ncc1C(=O)NC[C@@H](F)C(C)(C)O [Example 4, 6-((5-cyano-2-pyridinyl)amino)-4-(ethylamino)-N-((2R)-2-fluoro-3-hydroxy-3-methylbutyl)nicotinamide]
IC50: 454 nM

CNC(=O)[C@H]1CC[C@H](NC(=O)c2cnc(Nc3ccc(C#N)cn3)cc2NC(C)C)CC1 [Example 5, 6-((5-cyano-2-pyridinyl)amino)-4-(isopropylamino)-N-(trans-4-(methylcarbamoyl)cyclohexyl)nicotinamide]
IC50: 588 nM

CC(C)Nc1cc(Nc2ccc(C#N)cn2)ncc1C(=O)N[C@H]1CC[C@H](C(=O)NC2CC2)CC1 [Example 6, 6-((5-cyanopyridin-2-yl)amino)-N-((1R,4R)-4-(cyclopropylcarbamoyl)cyclohexyl)-4-(isopropylamino)nicotinamide]
IC50: 648 nM

CC(C)Nc1cc(Nc2ccc(C#N)cn2)ncc1C(=O)N[C@H]1CC[C@H](C(=O)N[C@H]2C[C@H]2F)CC1 [Example 7, 6-((5-cyano-2-pyridinyl)amino)-N-(trans-4-(((1S,2R)-2-fluorocyclopropyl)carbamoyl)cyclohexyl)-4-(isopropylamino)nicotinamide]
IC50: 800 nM

CC(=O)N1CCC(NC(=O)c2cnc(Nc3ccc(C#N)cn3)cc2NC(C)C)CC1 [Example 8, N-(1-acetyl-4-piperidinyl)-6-((5-cyano-2-pyridinyl)amino)-4-(isopropylamino)nicotinamide]
IC50: 433 nM

CC(=O)N[C@H]1CC[C@H](NC(=O)c2cnc(Nc3ccc(C#N)cn3)cc2NC(C)C)CC1 [Example 9, N-(trans-4-acetamidocyclohexyl)-6-((5-cyano-2-pyridinyl)amino)-4-(isopropylamino)nicotinamide]
IC50: 116 nM

CC(=O)N[C@H]1CC[C@H](NC(=O)c2cnc(Nc3ccc(C#N)cn3)cc2NC2CCOCC2F)CC1 (stereo partly drawn) [Example 11, N-((1R,4R)-4-acetamidocyclohexyl)-6-((5-cyanopyridin-2-yl)amino)-4-(((3 S,4R)-3-fluorotetrahydro-2H-pyran-4-yl)amino)nicotinamide]
IC50: 320 nM

CC(C)Nc1cc(Nc2ncc(C#N)cc2Cl)ncc1C(=O)NC[C@@H](F)C(C)(C)O [Example 12, 6-((3-chloro-5-cyano-2-pyridinyl)amino)-N-((2R)-2-fluoro-3-hydroxy-3-methylbutyl)-4-(isopropylamino)nicotinamide]
IC50: 50 nM

CC(C)(O)[C@H](F)CNC(=O)c1cnc(Nc2ncc(C#N)cc2Cl)cc1NC1CCOCC1 [Example 13, 6-((3-chloro-5-cyano-2-pyridinyl)amino)-N-((2R)-2-fluoro-3-hydroxy-3-methylbutyl)-4-(tetrahydro-2H-pyran-4-ylamino)nicotinamide]
IC50: 420 nM

CC(C)(O)[C@H](F)CNC(=O)c1cnc(Nc2ncc(C#N)cc2Cl)cc1NC1CC1 [Example 14, 6-((3-chloro-5-cyano-2-pyridinyl)amino)-4-(cyclopropylamino)-N-((2R)-2-fluoro-3-hydroxy-3-methylbutyl)nicotinamide]
IC50: 43 nM

CC(=O)N[C@H]1CC[C@H](NC(=O)c2cnc(Nc3ncc(C#N)cc3Cl)cc2NC(C)C)CC1 [Example 15, N-((1r,4r)-4-acetamidocyclohexyl)-6-((3-chloro-5-cyanopyridin-2-yl)amino)-4-(isopropylamino)nicotinamide]
IC50: 245 nM

CNC(=O)[C@H]1CC[C@H](NC(=O)c2cnc(Nc3ncc(C#N)cc3Cl)cc2NC(C)C)CC1 [Example 16, 6-((3-chloro-5-cyanopyridin-2-yl)amino)-4-(isopropylamino)-N—((1r,4r)-4-(methylcarbamoyl)cyclohexyl)nicotinamide]
IC50: 212 nM

CC(C)Nc1cc(Nc2ncc(C#N)cc2F)ncc1C(=O)NC[C@@H](F)C(C)(C)O [Example 17, 6-((5-cyano-3-fluoro-2-pyridinyl)amino)-N-((2R)-2-fluoro-3-hydroxy-3-methylbutyl)-4-(isopropylamino)nicotinamide]
IC50: 382 nM

CNC(=O)[C@H]1CC[C@H](NC(=O)c2cnc(Nc3ncc(C#N)cc3F)cc2NC(C)C)CC1 [Example 18, 6-((5-cyano-3-fluoropyridin-2-yl)amino)-4-(isopropylamino)-N-((1r,4r)-4-(methylcarbamoyl)cyclohexyl)nicotinamide]
IC50: 137 nM

CC(=O)N[C@H]1CC[C@H](NC(=O)c2cnc(Nc3ncc(C#N)cc3F)cc2NC(C)C)CC1 [Example 19, N-(trans-4-acetamidocyclohexyl)-6-((5-cyano-3-fluoro-2-pyridinyl)amino)-4-(isopropylamino)nicotinamide]
IC50: 378 nM

CC(C)Nc1cc(Nc2ccncn2)ncc1C(=O)NC[C@@H](F)C(C)(C)O [Example 20, N-((2R)-2-fluoro-3-hydroxy-3-methylbutyl)-4-(isopropylamino)-6-(4-pyrimidinylamino)nicotinamide]
IC50: 647 nM

CC(C)(O)[C@H](F)CNC(=O)c1cnc(Nc2ccncn2)cc1NC1CC1 [Example 21, 4-(cyclopropylamino)-N-((2R)-2-fluoro-3-hydroxy-3-methylbutyl)-6-(4-pyrimidinylamino)nicotinamide]
IC50: 331 nM

CC(C)Nc1cc(Nc2ncc(C#N)cn2)ncc1C(=O)NC[C@@H](F)C(C)(C)O [Example 22, 6-((5-cyano-2-pyrimidinyl)amino)-N-((2R)-2-fluoro-3-hydroxy-3-methylbutyl)-4-(isopropylamino)nicotinamide]
IC50: 342 nM

CC(C)(O)[C@H](F)CNC(=O)c1cnc(Nc2nc(-c3cccnc3)cs2)cc1NC1CC1 [Example 23, 4-(cyclopropylamino)-N-((2R)-2-fluoro-3-hydroxy-3-methylbutyl)-6-((4-(3-pyridinyl)-1,3-thiazol-2-yl)amino)nicotinamide]
IC50: 32 nM

CC(C)Nc1cc(Nc2ccnc(NC3CC3)n2)ncc1C(=O)NC[C@@H](F)C(C)(C)O [Example 24, 6-((2-(cyclopropylamino)-4-pyrimidinyl)amino)-N-((2R)-2-fluoro-3-hydroxy-3-methylbutyl)-4-(isopropylamino)nicotinamide]
IC50: 312 nM
